Laboratory results reported in patent US10499641B2 (priority 2010, dated 2019).

Columns and labels:
Phytophthora infestans = type: in vivo; conditions: young tomato plants, sprayed, active ingredient concentration 100 ppm, inoculated 1 day after treatment, evaluation 7 days after inoculation; 100% = no infection
Plasmopara viticola = test: Plasmopara test (grapevine)/protective; type: in vivo; conditions: young grapevine plants, sprayed, active ingredient concentration 10 ppm, evaluation 6 days after inoculation; 100% = no infection
Description: Plasmopara Test (Grapevine)/Protective
• Solvent: 24.5 parts by weight of acetone • 24.5 parts by weight of dimethylacetamide • Emulsifier: 1 part by weight of alkylaryl polyglycol ether
[To produce an appropriate active ingredient formulation, 1 part by weight of active ingredient is mixed with the specified amounts of solvent and emulsifier, and the concentrate is diluted with water to the desired concentration.
To test for protective efficacy, young plants are sprayed with the active ingredient formulation at the stated application rate. After the spray coating has dried on, the plants are inoculated with an aqueous spore suspension of Plasmopara viticola and then remain in an incubation cabin at approx. 20° C. and 100% relative air humidity for 1 day. Subsequently, the plants are placed in a greenhouse at approx. 21° C. and approx. 90% air humidity for 4 days. The plants are then moistened and placed in an incubation cabin for 1 day.
Evaluation follows 6 days after the inoculation. 0% means an efficacy which corresponds to that of the control, whereas an efficacy of 100% means that no infection is observed.
In this test, the following inventive compounds show, at an active ingredient concentration of 10 ppm, an efficacy of 70% or more: […]

## CCON=C(C)c1cccc(C2CC(c3csc(C4CCN(C(=O)Cn5nc(C(F)F)cc5C(F)F)CC4)n3)=NO2)c1 (mixture of isomers) [Example I-5]
Phytophthora infestans
  Eff. %: 100%
Plasmopara viticola
  Eff. %: 87%

## Cc1cc(C(F)(F)F)nn1CC(=O)N1CCC(c2nc(C3=NOC(c4cccc(C=NO)c4)C3)cs2)CC1 (mixture of isomers) [Example I-10]
Phytophthora infestans
  Eff. %: 100%
Plasmopara viticola
  Eff. %: 92%

## Cc1ccc(Cl)cc1NC(=O)N1CCC(c2nc(C3=NOC(c4cccc(C=NO)c4)C3)cs2)CC1 (mixture of isomers) [Example I-14]
Phytophthora infestans
  Eff. %: 100%
Plasmopara viticola
  Eff. %: 100%

## CON=Cc1cccc(C2CC(c3csc(C4CCN(C(=O)Cn5nc(C(F)(F)F)cc5C)CC4)n3)=NO2)c1 (mixture of isomers) [Example I-15]
Phytophthora infestans
  Eff. %: 100%
Plasmopara viticola
  Eff. %: 81%

## CON=Cc1cccc(C2CC(c3csc(C4CCN(C(=O)Cn5nc(C(F)F)cc5C(F)F)CC4)n3)=NO2)c1 (mixture of isomers) [Example I-16]
Plasmopara viticola
  Eff. %: 94%

## CC(=NO)c1cccc(C2CC(c3csc(C4CCN(C(=O)Cn5nc(C(F)F)cc5C(F)F)CC4)n3)=NO2)c1 (mixture of isomers) [Example I-18]
Phytophthora infestans
  Eff. %: 100%
Plasmopara viticola
  Eff. %: 100%

## CON=Cc1cccc(C2CC(c3csc(C4CCN(C(=O)Nc5cc(Cl)ccc5C)CC4)n3)=NO2)c1 (mixture of isomers) [Example I-19]
Phytophthora infestans
  Eff. %: 100%
Plasmopara viticola
  Eff. %: 100%

## CON=C(C)c1cccc(C2CC(c3csc(C4CCN(C(=O)Cn5nc(C(F)F)cc5C(F)F)CC4)n3)=NO2)c1 (mixture of isomers) [Example I-21]
Phytophthora infestans
  Eff. %: 100%
Plasmopara viticola
  Eff. %: 100%

## O=C(Cn1nc(C(F)F)cc1C(F)F)N1CCC(c2nc(C3=NOC(c4cccc(C=NO)c4)C3)cs2)CC1 (mixture of isomers) [Example I-22]
Phytophthora infestans
  Eff. %: 100%
Plasmopara viticola
  Eff. %: 100%

## CON=C(C)c1cccc(C2CC(c3csc(C4CCN(C(=O)Nc5cc(Cl)ccc5C)CC4)n3)=NO2)c1 (mixture of isomers) [Example I-23]
Phytophthora infestans
  Eff. %: 100%
Plasmopara viticola
  Eff. %: 98%

## CCON=Cc1ccccc1C1CC(c2csc(C3CCN(C(=O)Cn4nc(C(F)F)cc4C(F)F)CC3)n2)=NO1 (mixture of isomers) [Example I-27]
Phytophthora infestans
  Eff. %: 100%
Plasmopara viticola
  Eff. %: 99%

## CON=C(C)c1ccccc1C1CC(c2csc(C3CCN(C(=O)Cn4nc(C(F)(F)F)cc4C)CC3)n2)=NO1 (mixture of isomers) [Example I-31]
Phytophthora infestans
  Eff. %: 100%
Plasmopara viticola
  Eff. %: 97%

## CON=C(C)c1ccccc1C1CC(c2csc(C3CCN(C(=O)Cn4nc(C(F)F)cc4C(F)F)CC3)n2)=NO1 (mixture of isomers) [Example I-32]
Phytophthora infestans
  Eff. %: 100%
Plasmopara viticola
  Eff. %: 85%

## O=C(Cn1nc(C(F)F)cc1C(F)F)N1CCC(c2nc(C3=NOC(c4ccccc4C=NO)C3)cs2)CC1 (mixture of isomers) [Example I-35]
Phytophthora infestans
  Eff. %: 95%
Plasmopara viticola
  Eff. %: 100%

## Cc1ccc(Cl)cc1NC(=O)N1CCC(c2nc(C3=NOC(c4ccccc4C=NO)C3)cs2)CC1 (mixture of isomers) [Example I-36]
Phytophthora infestans
  Eff. %: 100%
Plasmopara viticola
  Eff. %: 100%

## CON=C(C)c1cccc(C2CC(c3csc(C4CCN(C(=O)Cn5nc(C(F)(F)F)cc5C)CC4)n3)=NO2)c1 (centres unmarked) [Example I-3]
Phytophthora infestans
  Eff. %: 100%
Plasmopara viticola
  Eff. %: 97%

## CC(=NO)c1cccc(C2CC(c3csc(C4CCN(C(=O)Cn5nc(C(F)(F)F)cc5C)CC4)n3)=NO2)c1 (centres unmarked) [Example I-7]
Phytophthora infestans
  Eff. %: 100%
Plasmopara viticola
  Eff. %: 100%

## CC(=O)Nc1ccc(C2CC(c3csc(C4CCN(C(=O)Cn5nc(C(F)F)cc5C(F)F)CC4)n3)=NO2)cc1 (centres unmarked) [Example I-25]
Plasmopara viticola
  Eff. %: 97%

## CON=Cc1ccccc1C1CC(c2csc(C3CCN(C(=O)Cn4nc(C(F)F)cc4C(F)F)CC3)n2)=NO1 (centres unmarked) [Example I-26, 2-{3-[2-(1-{[3,5-Bis(difluoromethyl)-1H-pyrazol-1-yl]acetyl}piperidin-4-yl)-1,3-thiazol-4-yl]-4,5-dihydro-1,2-oxazol-5-yl}benzaldehyde O-methyloxime]
Phytophthora infestans
  Eff. %: 100%
Plasmopara viticola
  Eff. %: 100%

## CCON=Cc1ccccc1C1CC(c2csc(C3CCN(C(=O)Cn4nc(C(F)(F)F)cc4C)CC3)n2)=NO1 (centres unmarked) [Example I-29]
Phytophthora infestans
  Eff. %: 100%
Plasmopara viticola
  Eff. %: 90%

## CON=Cc1ccccc1C1CC(c2csc(C3CCN(C(=O)Cn4nc(C(F)(F)F)cc4C)CC3)n2)=NO1 (centres unmarked) [Example I-34]
Phytophthora infestans
  Eff. %: 100%
Plasmopara viticola
  Eff. %: 87%

## CON=Cc1ccccc1C1CC(c2csc(C3CCN(C(=O)Nc4cc(Cl)ccc4C)CC3)n2)=NO1 (centres unmarked) [Example I-41, N-(5-Chloro-2-methylphenyl)-4-[4-(5-{2-[(methoxyimino)methyl]phenyl}-4,5-dihydro-1,2-oxazol-3-yl)-1,3-thiazol-2-yl]piperidine-1-carboxamide]
Phytophthora infestans
  Eff. %: 100%
Plasmopara viticola
  Eff. %: 81%

## C#CCOCc1ccccc1C1CC(c2csc(C3CCN(C(=O)Cn4nc(C(F)(F)F)cc4C)CC3)n2)=NO1 (centres unmarked) [Example I-46]
Phytophthora infestans
  Eff. %: 94%
Plasmopara viticola
  Eff. %: 94%

## CC(=O)OCc1ccccc1C1CC(c2csc(C3CCN(C(=O)Cn4nc(C(F)(F)F)cc4C)CC3)n2)=NO1 (centres unmarked) [Example I-47]
Phytophthora infestans
  Eff. %: 94%
Plasmopara viticola
  Eff. %: 90%

## C#CCOCc1ccccc1C1CC(c2csc(C3CCN(C(=O)Cn4nc(C(F)F)cc4C(F)F)CC3)n2)=NO1 (centres unmarked) [Example I-53]
Phytophthora infestans
  Eff. %: 94%
Plasmopara viticola
  Eff. %: 96%

## Cc1ccc(Cl)cc1NC(=O)N1CCC(c2nc(C3=NOC(c4c(Cl)cccc4OS(C)(=O)=O)C3)cs2)CC1 (centres unmarked) [Example I-54]
Phytophthora infestans
  Eff. %: 94%
Plasmopara viticola
  Eff. %: 100%

## CC(=O)OCc1ccccc1C1CC(c2csc(C3CCN(C(=O)Cn4nc(C(F)F)cc4C(F)F)CC3)n2)=NO1 (centres unmarked) [Example I-55]
Phytophthora infestans
  Eff. %: 94%
Plasmopara viticola
  Eff. %: 92%

## COCCS(=O)(=O)Cc1ccccc1C1CC(c2csc(C3CCN(C(=O)Cn4nc(C(F)F)cc4C(F)F)CC3)n2)=NO1 (centres unmarked) [Example I-57]
Phytophthora infestans
  Eff. %: 94%
Plasmopara viticola
  Eff. %: 90%

## N#CCOc1ccccc1C1CC(c2csc(C3CCN(C(=O)Cn4nc(C(F)F)cc4C(F)F)CC3)n2)=NO1 (centres unmarked) [Example I-63]
Phytophthora infestans
  Eff. %: 94%
Plasmopara viticola
  Eff. %: 100%

## O=C(Cn1nc(C(F)F)cc1C(F)F)N1CCC(c2nc(C3=NOC(c4ccccc4OS(=O)(=O)C4CC4)C3)cs2)CC1 (centres unmarked) [Example I-64]
Phytophthora infestans
  Eff. %: 100%
Plasmopara viticola
  Eff. %: 100%

## Cc1ccc(C)c(NC(=O)N2CCC(c3nc(C4=NOC(c5ccccc5OS(C)(=O)=O)C4)cs3)CC2)c1 (centres unmarked) [Example I-74]
Phytophthora infestans
  Eff. %: 100%
Plasmopara viticola
  Eff. %: 100%

## N#CCOc1cccc(Cl)c1C1CC(c2csc(C3CCN(C(=O)Cn4nc(C(F)F)cc4C(F)F)CC3)n2)=NO1 (centres unmarked) [Example I-75]
Plasmopara viticola
  Eff. %: 100%

## Cc1cc(C(F)F)nn1CC(=O)N1CCC(c2nc(C3=NOC(c4ccccc4OCC#N)C3)cs2)CC1 (centres unmarked) [Example I-76]
Phytophthora infestans
  Eff. %: 100%
Plasmopara viticola
  Eff. %: 93%

## CCS(=O)(=O)Oc1cccc(C2CC(c3csc(C4CCN(C(=O)Cn5nc(C(F)F)cc5C(F)F)CC4)n3)=NO2)c1 (centres unmarked) [Example I-77]
Phytophthora infestans
  Eff. %: 98%
Plasmopara viticola
  Eff. %: 93%

## Cc1cc(C(F)(F)F)nn1CC(=O)N1CCC(c2nc(C3=NOC(c4c(Cl)cccc4OCC#N)C3)cs2)CC1 (centres unmarked) [Example I-78]
Phytophthora infestans
  Eff. %: 80%
Plasmopara viticola
  Eff. %: 97%

## N#CCOc1ccc(C2CC(c3csc(C4CCN(C(=O)Cn5nc(C(F)F)cc5C(F)F)CC4)n3)=NO2)cc1 (centres unmarked) [Example I-81]
Phytophthora infestans
  Eff. %: 100%
Plasmopara viticola
  Eff. %: 99%

## C/C=C/C(=O)Oc1ccccc1C1CC(c2csc(C3CCN(C(=O)Cn4nc(C(F)F)cc4C(F)F)CC3)n2)=NO1 (centres unmarked) [Example I-82]
Phytophthora infestans
  Eff. %: 70%
Plasmopara viticola
  Eff. %: 94%

## O=C(Cn1nc(C(F)F)cc1C(F)F)N1CCC(c2nc(C3=NOC(c4cccc(OS(=O)(=O)C5CC5)c4)C3)cs2)CC1 (centres unmarked) [Example I-83]
Phytophthora infestans
  Eff. %: 98%
Plasmopara viticola
  Eff. %: 94%

## O=C(Cn1nc(C(F)F)cc1C(F)F)N1CCC(c2nc(C3=NOC(c4cc(F)ccc4OS(=O)(=O)C4CC4)C3)cs2)CC1 (centres unmarked) [Example I-84]
Phytophthora infestans
  Eff. %: 90%
Plasmopara viticola
  Eff. %: 100%

## CS(=O)(=O)Oc1c(F)cccc1C1CC(c2csc(C3CCN(C(=O)Cn4nc(C(F)F)cc4C(F)F)CC3)n2)=NO1 (centres unmarked) [Example I-85]
Phytophthora infestans
  Eff. %: 75%
Plasmopara viticola
  Eff. %: 100%

## Cc1cc(C(F)(F)F)nn1CC(=O)N1CCC(c2nc(C3=NOC(c4c(F)cccc4OCC#N)C3)cs2)CC1 (centres unmarked) [Example I-86]
Phytophthora infestans
  Eff. %: 75%
Plasmopara viticola
  Eff. %: 99%

## N#CCCn1cccc1C1CC(c2csc(C3CCN(C(=O)Cn4nc(C(F)F)cc4C(F)F)CC3)n2)=NO1 (centres unmarked) [Example I-87]
Phytophthora infestans
  Eff. %: 80%
Plasmopara viticola
  Eff. %: 95%

## CS(=O)(=O)Oc1cccc(Cl)c1C1CC(c2csc(C3CCN(C(=O)Cn4nc(C(F)F)cc4C(F)F)CC3)n2)=NO1 (centres unmarked) [Example I-102]
Phytophthora infestans
  Eff. %: 75%
Plasmopara viticola
  Eff. %: 100%

## Cc1cc(C(F)(F)F)nn1CC(=O)N1CCC(c2nc(C3=NOC(c4c(Cl)cccc4OS(C)(=O)=O)C3)cs2)CC1 (centres unmarked) [Example I-103]
Phytophthora infestans
  Eff. %: 80%
Plasmopara viticola
  Eff. %: 100%

## O=CNc1ccccc1C1CC(c2csc(C3CCN(C(=O)Cn4nc(C(F)F)cc4C(F)F)CC3)n2)=NO1 (centres unmarked) [Example I-108]
Phytophthora infestans
  Eff. %: 100%
Plasmopara viticola
  Eff. %: 93%

## CSCOc1ccccc1C1CC(c2csc(C3CCN(C(=O)Cn4nc(C(F)F)cc4C(F)F)CC3)n2)=NO1 (centres unmarked) [Example I-112]
Phytophthora infestans
  Eff. %: 94%
Plasmopara viticola
  Eff. %: 100%
